Test results published in article PMC5011760, “Luteolin Attenuates Airway Mucus Overproduction via Inhibition of the GABAergic System” (Scientific Reports, 2016).

System: T1, GABAA receptors (GABAAR) in A549 cells
T1 construct: gene GABRA3; endogenous receptors of A549 cells, pentameric; exact subunit composition not determined (members = most abundant subunit mRNAs)
Assay: whole-cell patch clamp, A549 cells
Format: cell-based
Conditions: inhibition of currents evoked by 2.5 μM GABA; -60 mV, pH 7.4; authors call it allosteric modulator

## O=c1cc(-c2ccc(O)c(O)c2)oc2cc(O)cc(O)c12 [luteolin, 3′,4′,5,7-tetrahydroxyflavone]
  IC50: 8.2 µM
